Drawing on patent US5326766A, “4-(2-(4-(2-pyridinyloxy)phenyl)ethoxy)quinazoline and analogues thereof” (priority 1992, dated 1994), this text covers pest or weed control and PLASVI disease control for 21 compounds.

Assay [1] concerns Plasmopara viticola (downy mildew). Put plainly: Foliar spray fungicide test, Plasmopara viticola (downy mildew) on grape. The following applies: for pest or weed control at 400 µg/mL: Plasmopara viticola, foliar, read-out: PLASVI disease control.
Procedure: (§1) The test compounds were formulated for application by dissolving 50 mg of the compound into 1.25 ml of solvent. The solvent was prepared by mixing 50 ml of "Tween 20" (polyoxyethylene (20) sorbitan monolaurate emulsifier) with 475 ml of acetone and 475 ml of ethanol. The solvent/compound solution was diluted to 125 ml with deionized water. The resulting formulation contains 400 ppm test chemical. Lower concentrations were obtained by serial dilution with the solvent-surfactant mixture.
(§2) The formulated test compounds were applied by foliar spray.
(§3) The formulated technical compounds were sprayed on all foliar surfaces of the host plants to past run-off. Single pots of each host plant were placed on raised, revolving pedestals in a fume hood. Test solutions were sprayed on all foliar surfaces. All treatments were allowed to dry and the plants were inoculated with the appropriate pathogens within 24 hours.
(§4) The effectiveness of test compounds in controlling disease was rated using the following scale.
For assay [2], the system named is Leptosphaeria nodorum (glume blotch). Put plainly: Foliar spray fungicide test, Leptosphaeria nodorum (glume blotch) on wheat. The following applies: Parastagonospora nodorum, in Triticum aestivum, foliar, read-out: LETPNO disease control, host wheat, 400 ppm (+++: 100 ppm).
Procedure: as §1, §2, §3, §4
Assay [3] concerns Puccinia recondita tritici (leaf rust). Put plainly: Foliar spray fungicide test, Puccinia recondita tritici (leaf rust) on wheat. The following applies: Puccinia recondita, in Triticum aestivum, foliar, read-out: PUCCRT disease control, host wheat, 400 ppm (+++: 100 ppm).
Assay [4] has as its system Pyricularia oryzae (rice blast). Put plainly: whole plant or invertebrate. The following applies: Pyricularia oryzae, foliar, read-out: PYRIOR disease control, host rice; foliar spray; 400 ppm (+++: 100 ppm). Format: in vivo.
In assay [5] the test system is Erysiphe graminis tritici (powdery mildew). Put plainly: Foliar spray fungicide test, Erysiphe graminis tritici (powdery mildew) on wheat. The following applies: Blumeria graminis, in Triticum aestivum, foliar, read-out: ERYSGT disease control, host wheat, 400 ppm (+++: 100 ppm).

For `FC(F)(F)c1cnc(Oc2ccc(CCNc3ncnc4cccnc34)cc2)c(Cl)c1` [Compound 2], the pest or weed control at 400 µg/mL in assay [1] fell in the range of 90 to 100%; in assay [2], 20 to 89%; in assay [3], 90 to 100%; in assay [4] it was 90 to 100%; in assay [5] it was 90 to 100%.
As to `N#Cc1cccnc1Oc1ccc(CCOc2ncnc3c(F)cccc23)cc1` [Compound 3], the pest or weed control at 400 µg/mL was 90 to 100% in assay [1]; 20 to 89% in assay [2]; 20 to 89% in assay [3]; 20 to 89% in assay [4]; 20 to 89% in assay [5].
Regarding `N#Cc1cccnc1Oc1ccc(CCOc2ncnc3cccc(F)c23)cc1` [Compound 4], the pest or weed control at 400 µg/mL was 20 to 89% in assay [1]; 0 to 19% in assay [2]; 0 to 19% in assay [3]; 0 to 19% in assay [4]; 20 to 89% in assay [5].
On to `O=[N+]([O-])c1cccnc1Oc1ccc(CCOc2ncnc3c(F)cccc23)cc1` [Compound 8], for which the pest or weed control at 400 µg/mL in assay [1] is 90 to 100%; in assay [2], 20 to 89%; in assay [3] it was 20 to 89%; in assay [4] it was 20 to 89%; in assay [5], 90 to 100%.
On to `O=[N+]([O-])c1cccnc1Oc1ccc(CCOc2ncnc3cccc(F)c23)cc1` [Compound 9], for which the pest or weed control at 400 µg/mL in assay [1] is 90 to 100%; in assay [2], 0 to 19%; in assay [3] it was 0 to 19%; in assay [4], 0 to 19%; in assay [5], 0 to 19%.
`Fc1cccc2c(OCCc3ccc(Oc4ncccc4C(F)(F)F)cc3)ncnc12` [Compound 10]: the pest or weed control at 400 µg/mL in assay [1], in assay [2], in assay [3], in assay [4] and in assay [5] was 90 to 100% throughout.
As to `Fc1cccc2c(NCCc3ccc(Oc4ncccc4C(F)(F)F)cc3)ncnc12` [Compound 11], the PLASVI disease control result in assay [1] (host grape, foliar spray, 400 ppm (+++: 100 ppm)) was “+ ++”. Besides, the pest or weed control at 400 µg/mL in assay [2], in assay [3], in assay [4] and in assay [5] was 90 to 100% each time.
As for `Fc1cccc2c(NCCc3ccc(Oc4cc(C(F)(F)F)ccn4)cc3)ncnc12` [Compound 14], the pest or weed control at 400 µg/mL in assay [1] is 90 to 100%; in assay [2], 20 to 89%; in assay [3] it was 90 to 100%; in assay [4], 90 to 100%; in assay [5], 90 to 100%.
Turning to `Fc1cccc2c(OCCc3ccc(Oc4ccc(Cl)cn4)cc3)ncnc12` [Compound 17], the pest or weed control at 400 µg/mL in assay [1] is 90 to 100%; in assay [2] it was 20 to 89%; in assay [3], 90 to 100%; in assay [4] it was 90 to 100%; in assay [5] it was 90 to 100%.
Take `O=[N+]([O-])c1ccc(Oc2ccc(CCNc3ncnc4c(F)cccc34)cc2)nc1` [Compound 24]: the pest or weed control at 400 µg/mL in assay [1] was in the range of 90 to 100%; in assay [2], 20 to 89%; in assay [3] it was 20 to 89%; in assay [4], 20 to 89%; in assay [5], 0 to 19%.
For `FC(F)(F)c1ccc(Oc2ccc(CCOc3ncnc4ncccc34)cc2)nc1` [Compound 30], the pest or weed control at 400 µg/mL in assay [1] lay within 90 to 100%; in assay [2], 0 to 19%; in assay [3] it was 90 to 100%; in assay [4], 90 to 100%; in assay [5], 90 to 100%.
In the case of `FC(F)(F)c1ccc(Oc2ccc(CCNc3ncnc4ncccc34)cc2)nc1` [Compound 31], the pest or weed control at 400 µg/mL is 90 to 100% in assay [1]; 20 to 89% in assay [2]; 90 to 100% in assay [3]; 20 to 89% in assay [4]; 20 to 89% in assay [5].
On to `FC(F)(F)c1ccc(Oc2ccc(CCNc3ncnc4cccnc34)cc2)nc1` [Compound 32], for which the pest or weed control at 400 µg/mL in assay [1], in assay [2], in assay [3], in assay [4] and in assay [5] was 90 to 100% in each case.
With `Fc1cccc2c(OCCc3ccc(Oc4cccc(OCC(F)(F)F)n4)cc3)ncnc12` [Compound 33], the pest or weed control at 400 µg/mL in assay [1] lay in the range of 90 to 100%; in assay [2], 0 to 19%; in assay [3], 90 to 100%; in assay [4] it was 20 to 89%; in assay [5] it was 90 to 100%.
As to `Fc1cccc2c(OCCc3ccc(Oc4cccc(C(F)(F)F)n4)cc3)ncnc12` [Compound 36], the pest or weed control at 400 µg/mL in assay [1] fell in the range of 90 to 100%; in assay [2], 20 to 89%; in assay [3], 90 to 100%; in assay [4], 90 to 100%; in assay [5], 90 to 100%.
Regarding `Fc1cccc2c(NCCc3ccc(Oc4cccc(C(F)(F)F)n4)cc3)ncnc12` [Compound 37], the pest or weed control at 400 µg/mL in assay [1] is 90 to 100%; in assay [2], 90 to 100%; in assay [3], 90 to 100%; in assay [4], 20 to 89%; in assay [5] it was 90 to 100%.
Turning to `Fc1cccc2c(NCCc3ccc(Oc4cccc(C(F)(F)F)n4)cc3)ccnc12` [Compound 40, 8-Fluoro-4-(2-(4-(6-(trifluoromethyl)-2-pyridinyloxy)phenyl)ethylamino)quinoline], the pest or weed control at 400 µg/mL lay in the range of 90 to 100% in assay [1]; 20 to 89% in assay [2]; 90 to 100% in assay [3]; 20 to 89% in assay [4]; 90 to 100% in assay [5].
For the compound `Brc1cnc(Oc2ccc(CCOc3ncnc4ccccc34)cc2)nc1` [Compound 46], the pest or weed control at 400 µg/mL was in the range of 0 to 19% in assay [1]; 20 to 89% in assay [2]; 20 to 89% in assay [3]; 0 to 19% in assay [4]; 20 to 89% in assay [5].
For the compound `Clc1cnc(Oc2ccc(CCOc3ncnc4ccccc34)cc2)nc1` [Compound 47], the pest or weed control at 400 µg/mL fell in the range of 20 to 89% in assay [1], 0 to 19% in assay [2], 20 to 89% in assay [4] and 90 to 100% in assay [5].
In the case of `Fc1cccc2c(OCCc3ccc(Oc4ncc(Cl)cn4)cc3)ccnc12` [Compound 48], the pest or weed control at 400 µg/mL in assay [1] fell in the range of 20 to 89%; in assay [2] it was 0 to 19%; in assay [4], 0 to 19%; in assay [5], 20 to 89%.
In the case of `Clc1ccc(Oc2ccc(CCOc3ncnc4ccccc34)cc2)nn1` [Compound 49], the pest or weed control at 400 µg/mL in assay [1] was in the range of 90 to 100%; in assay [2] it was 0 to 19%; in assay [3] it was 20 to 89%; in assay [4] it was 0 to 19%; in assay [5], 20 to 89%.
